Entries after “also recorded” stand apart in the source; their conditions may differ.
Legend:
Human PBMC = assay: IL-2 expression in SEB-stimulated PBMC cultures; format: cell-based; details: five days, Luminex
[1] = Stability in rodent blood / plasma; format: in vitro ADME
[2] = tested on: vascular or stromal models of HT-29 and peripheral blood mononuclear cells (PBMCs); assay: BioMAP Oncology CRC panel, system not specified (tumour immune microenvironment model); format: cell-based, human; details: 4 concentrations, 48-hrs, vs vehicle control
From the text: (§1) To recapitulate the complex signaling networks that manifest in the multi-component TME, the BioMAP Oncology systems co-culture human primary immune cells with primary tissue cells in the presence of a specific cancer cell line. These co-cultures are stimulated with submitogenic levels of T cell receptor (TCR) ligands to prime, but not maximally activate T cells and model immune cells recruited to the intra-tumoural microenvironment.
There are two BioMAP Oncology panels that model the interactions between the immune-stromal (fibroblasts) and immune-vascular (endothelial cells) environments in the context of colon cancer (HT-29 CRC cell line), or in the context of non-small lung cancer (NCI-H1299 NSCLC cell line). The interactions between tumour cells, stimulated immune cells (peripheral blood mononuclear cells (PBMC)), and the host stromal network (human neonatal dermal fibroblasts (HDFn)) is captured in the Stro Oncology systems. In parallel, the Vasc systems capture the interactions between tumour cells, activated immune cells and the vascular tissue (human umbilical vein endothelial cells (HUVEC). The biomarkers selected for the Oncology panels inform on activities related to inflammation, immune-function, tissue remodeling and metastasis in the context of a host tumour-microenvironment. Collectively, the Oncology CRC panel and the Oncology NSCLC panel.
Human primary cells in BioMAP systems are used at early passage (passage 4 or earlier) to minimize adaptation to cell culture conditions and preserve physiological signaling responses. All primary cells are pooled from multiple donors (n=3-6), commercially purchased and handled according to the recommendations of the manufacturers. The HT-29 CRC cell line and the NCI-H1299 NSCLC cell line are purchased from American Type Culture Collection (ATCC). Abbreviations are used as follows: human umbilical vein endothelial cells (HUVEC), peripheral blood mononuclear cells (PBMC), human neonatal dermal fibroblasts (HDFn) and T cell receptor (TCR). Systems in both the Oncology CRC and NSCLC panels are stimulated by sub-mitogenic levels of super antigens (SAg) acting via the TCR to recapitulate the recruitment of immune cells to the tumour environment in situ. These stimulation conditions are optimized to activate or prime T cells, but not drive T cell proliferation.
Cell types used in each of the CRC systems are as follows: StroHT29 system [HT-29 colorectal adenocarcinoma cell line+HDFn+PBMC] and VascHT29 system [HT-29 colorectal adenocarcinoma cell line+HUVEC+PBMC].
Adherent cell types are cultured in 96-well plates until confluent, followed by the addition of PBMC. Test agents prepared in either DMSO (small molecules; final concentration ≤0.1%) or PBS (biologics) are added at the specified concentrations 1-hr before stimulation, and remain in culture for 48-hrs. Each plate contains drug controls (e.g., legacy control test agent colchicine), negative controls (e.g., non-stimulated condition) and vehicle controls (e.g., 0.1% DMSO). Direct ELISA is used to measure biomarker levels of cell-associated and cell membrane targets. Soluble factors from supernatants are quantified using either HTRF® detection, bead-based multiplex immunoassay or capture ELISA. Effects of test agents on cell viability (cytotoxicity) are measured by sulforhodamine B (SRB) for adherent cells (48-hrs), and by alamarBlue® reduction for cells in suspension (42-hrs) at the time points indicated. All test agents are tested in standardized formats at 4 concentrations, in triplicate. Colchicine stimulated wells, vehicle control treated wells, and wells without stimulation are included as controls on each plate (n=3-8). Data acceptance criteria are based on plate performance (% CV of controls), and the performance of positive controls across assays with a comparison to historical controls. […]

[3] = tested on: HT-29 colorectal adenocarcinoma cell line+HDFn+PBMC; assay: BioMAP StroHT29 system; format: cell-based, human; details: stromal IL-6, FIG. 14
From the text: as §1
There are two BioMAP Oncology panels that model the interactions between the immune-stromal (fibroblasts) and immune-vascular (endothelial cells) environments in the context of colon cancer (HT-29 CRC cell line), or in the context of non-small lung cancer (NCI-H1299 NSCLC cell line). The interactions between tumour cells, stimulated immune cells (peripheral blood mononuclear cells (PBMC)), and the host stromal network (human neonatal dermal fibroblasts (HDFn)) is captured in the Stro Oncology systems. […]
Adherent cell types are cultured in 96-well plates until confluent, followed by the addition of PBMC. […] Soluble factors from supernatants are quantified using either HTRF® detection, bead-based multiplex immunoassay or capture ELISA. Effects of test agents on cell viability (cytotoxicity) are measured by sulforhodamine B (SRB) for adherent cells (48-hrs), and by alamarBlue® reduction for cells in suspension (42-hrs) at the time points indicated. […]

[4] = Stability in human plasma; format: in vitro ADME
SK-OV-3 tumour cells = assay: PBMC-mediated tumour cell killing; format: cell-based, human; details: anti-CD3 stimulated PBMC co-culture, 68 hrs, 5000 nM MIV-818
Procedure: Whole blood from three healthy donors was used. PBMC were isolated over a density gradient and counted before adding to NucLight Red labelled tumour targets at a defined E:T ratio in the presence of anti-CD3 stimulation. Tumour cell—PBMC co-cultures were incubated with test compounds at eight concentrations. Appropriate controls were included: PBMC alone, tumour cells alone, tumour cells/PBMC in the presence of a reference compound at a single concentration. All test conditions were also plated onto tumour cells in the absence of stimulated PBMC in order to detect direct compound-associated tumour cytotoxicity. Tumour killing was evaluated by counting viable NucLight positive tumour cells over time. In addition, a Caspase 3/7 dye was used to identify apoptotic tumour cells. Cultures were analysed using an IncuCyte ZOOM machine which allows real-time quantitative live cell fluorescent imaging. Co-cultures were imaged over 68 hrs. Each culture condition was established in triplicate. Cell culture supernatants were stored for optional cytokine analysis.
PBMC were isolated from 3 healthy donors and added to co-cultures with anti-CD3 stimulation and NucLight Red labelled SK-OV-3 tumour cells. […] SK-OV-3 apoptotic cell death was monitored in the co-culture system by imaging for 68 hours using the IncuCyte Zoom software.

HT-29 = assay: Sensitivity of HT-29 cells to MIV-818 alone (IC50); format: cell-based; details: Homo sapiens; HT-29, MIV-818 alone
HepG2 = assay: IC50 in representative HCC cell line HepG2; format: cell-based; details: Homo sapiens
[5] = pulmonary metastatic liver cancer, Wu et al 2017; cited from earlier work

CCC[C@H](C)OC(=O)[C@H](C)NP(=O)(OC[C@H]1OC[C@@H](n2ccc(N)nc2=O)O1)Oc1ccc(Br)cc1 (stereo in doubt) [MIV-818]
IL-2 expression (Human PBMC): induced | metabolism in rodent blood ([1]; rodent blood): very quickly metabolized | stability in rodent plasma ([1]; rodent plasma): extremely unstable | Collagen III [2]: decreased | IP-10 [2]: decreased | VCAM-1 [2]: decreased | sIFNγ [2]: increased | sIL-6 [2]: decreased | sIL-17A [2]: increased | uPAR [2]: Decreased | sIL-6 in the stromal HT-29 system [3]: inhibits | stability in human plasma [4]: stable | PBMC-mediated tumour cell killing (apoptotic SK-OV-3 counts) (SK-OV-3 tumour cells): enhance | IC50 (HT-29): ~0.02 µM | IC50 (HepG2): ~0.02 µM

pembrolizumab: humanized monoclonal IgG4 antibody directed against human cell surface receptor PD-1
sIL-6 in the stromal HT-29 system [3]: increase; also recorded: modest enhancement | adverse event reported [5]: liver failure

Source: patent publication US12303521B2, “Methods for treating liver cancers using an orally administered dioxolane nucleotide in combination with an anti-PD1 or anti-PDL1 monoclonal antibody” (MEDIVIR AB, priority 2019, dated 2025)
